From ChEMBL document CHEMBL1159192, “PD 165929 the first high affinity non-peptide neuromedin-B (NMB) receptor selective antagonist” (Bioorg Med Chem Lett, 1996)

Legend:
[1] = target: T1, Neuromedin-B receptor (Homo sapiens, UniProt P28336); assay: Binding affinity against [125 I][4Tyr]-bombesin labeled cloned human NMB receptor stably expressed in CHO cells; type: cell-based
Target sequence in this assay (P28336 whole entry): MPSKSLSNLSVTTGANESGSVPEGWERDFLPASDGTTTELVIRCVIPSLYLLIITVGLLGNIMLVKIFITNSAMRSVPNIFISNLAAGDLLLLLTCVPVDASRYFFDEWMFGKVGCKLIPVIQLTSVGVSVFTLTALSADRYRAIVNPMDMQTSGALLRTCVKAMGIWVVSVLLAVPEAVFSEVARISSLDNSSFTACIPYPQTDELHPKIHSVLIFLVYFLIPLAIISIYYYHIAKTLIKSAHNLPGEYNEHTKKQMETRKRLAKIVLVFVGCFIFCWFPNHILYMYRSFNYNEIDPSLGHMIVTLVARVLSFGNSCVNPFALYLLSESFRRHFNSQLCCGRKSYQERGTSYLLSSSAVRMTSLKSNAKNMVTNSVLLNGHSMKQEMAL

[2] = target: Gastrin-releasing peptide receptor (Homo sapiens, UniProt P30550); assay: Binding affinity against [125 I][4Tyr]-bombesin labeled cloned human GRP(gastrin releasing peptide) receptors stably expressed in CHO cells; type: cell-based
Gastrin-releasing peptide receptor, sequence (P30550 whole entry): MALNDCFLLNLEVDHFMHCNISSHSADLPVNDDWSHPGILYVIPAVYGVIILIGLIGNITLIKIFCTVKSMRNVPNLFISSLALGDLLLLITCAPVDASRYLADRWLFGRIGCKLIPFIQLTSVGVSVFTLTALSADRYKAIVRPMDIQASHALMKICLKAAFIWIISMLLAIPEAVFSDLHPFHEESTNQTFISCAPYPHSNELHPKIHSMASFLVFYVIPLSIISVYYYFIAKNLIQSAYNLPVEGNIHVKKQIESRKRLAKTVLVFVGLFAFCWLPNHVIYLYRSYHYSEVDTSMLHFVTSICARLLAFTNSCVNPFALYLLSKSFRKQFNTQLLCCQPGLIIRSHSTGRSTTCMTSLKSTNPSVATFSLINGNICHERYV

[3] = target: T2, Neuromedin-B receptor (Rattus norvegicus, UniProt P24053); assay: Binding affinity against NMB receptor in rat olfactory bulb was determined using [125I]-[Tyr4] bombesin.
T2 sequence (P24053 whole entry): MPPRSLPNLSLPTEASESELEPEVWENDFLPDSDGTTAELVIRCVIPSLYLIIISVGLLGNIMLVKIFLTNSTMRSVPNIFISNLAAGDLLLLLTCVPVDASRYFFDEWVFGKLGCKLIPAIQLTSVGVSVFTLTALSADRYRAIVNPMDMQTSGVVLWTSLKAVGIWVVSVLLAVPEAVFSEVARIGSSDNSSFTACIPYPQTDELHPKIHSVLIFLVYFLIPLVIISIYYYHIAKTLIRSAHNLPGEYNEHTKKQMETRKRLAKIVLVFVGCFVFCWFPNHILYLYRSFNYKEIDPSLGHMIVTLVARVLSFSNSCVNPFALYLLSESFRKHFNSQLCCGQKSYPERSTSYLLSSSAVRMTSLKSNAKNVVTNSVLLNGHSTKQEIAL

[4] = target: T1, Neuromedin-B receptor; assay: Binding affinity against human NMB receptor was determined
Target sequence in this assay (P28336 whole entry): as the sequence (P28336 whole entry) above

[5] = target: T1, Neuromedin-B receptor; assay: Inhibition of the NMB evoked increases in chloride currents in xenopus oocytes expressing human NMB receptor; type: functional, cell-based; details: Oocyte
Target sequence in this assay (P28336 whole entry, looked up): as the sequence (P28336 whole entry) above

[6] = target: T1, Neuromedin-B receptor; assay: Inhibition of the NMB induced acidification response at human NMB receptor expressed in CHO cell; type: functional, cell-based
Target sequence in this assay (P28336 whole entry, looked up): as the sequence (P28336 whole entry) above

| Structure (SMILES) | Ki [1] [µM] | Ki [2] [µM] | IC50 [3] [µM] | Ki [4] [µM] | Kb [5] [µM] | Kb [6] [µM] |
| --- | --- | --- | --- | --- | --- | --- |
| CC(C)c1cccc(C(C)C)c1NC(=O)NC(C)(Cc1c[nH]c2ccccc12)C(=O)NCC1CCCCC1 (stereo not drawn) | 0.125 | > 10 |  |  |  |  |
| CC(C)c1cccc(C(C)C)c1NC(=O)N(C)C(Cc1c[nH]c2ccccc12)C(=O)NCC1CCCCC1 (stereo not drawn) |  | 1.5 |  |  |  |  |
| CC(C)c1cccc(C(C)C)c1NC(=O)NC(Cc1c[nH]c2ccccc12)C(=O)NC(C)C1CCCCC1 (stereo not drawn) | 0.44 | > 10 |  |  |  |  |
| CC(C)c1cccc(C(C)C)c1NC(=O)N[C@@](C)(Cc1c[nH]c2ccccc12)C(=O)NCC1(c2ccccn2)CCCCC1 | 0.0063 | > 10 | 0.15 | 0.0063 | 0.0075 | 0.0076 |
| CC(C)c1cccc(C(C)C)c1NC(=O)NC(C)(Cc1c[nH]c2ccccc12)C(=O)NCCc1ccccc1 (stereo not drawn) | 0.45 | > 10 |  |  |  |  |
| CC(C)c1cccc(C(C)C)c1NC(=O)NC(C)(Cc1c[nH]c2ccccc12)C(=O)NC1CCCc2ccccc21 (stereo not drawn) | 0.072 | > 10 |  |  |  |  |
| CC(C)c1cccc(C(C)C)c1NC(=O)NC(C)(Cc1c[nH]c2ccccc12)C(=O)NC1CCc2ccccc2C1 (stereo not drawn) | 0.31 | > 10 |  |  |  |  |
| CC(C)c1cccc(C(C)C)c1NC(=O)NC(C)(Cc1c[nH]c2ccccc12)C(=O)N[C@@H]1COC(C)(C)OC1c1ccccc1 (stereo partly drawn) | 0.42 | > 10 |  |  |  |  |
| CC(C)c1cccc(C(C)C)c1NC(=O)N[C@](C)(Cc1c[nH]c2ccccc12)C(=O)NC1CCCc2ccccc21 (stereo partly drawn) | 0.014 | > 10 |  |  |  |  |
| CC(C)c1cccc(C(C)C)c1NC(=O)N[C@@](C)(Cc1c[nH]c2ccccc12)C(=O)NC1CCCCC1c1ccccc1 (stereo partly drawn) | 0.076 | > 10 |  |  |  |  |
| CNC(=O)C(C)(Cc1c[nH]c2ccccc12)NC(=O)Nc1c(C(C)C)cccc1C(C)C (stereo not drawn) | 3.7 | > 10 |  |  |  |  |
| CC(C)c1cccc(C(C)C)c1NC(=O)NC(C)(Cc1c[nH]c2ccccc12)C(=O)NCC1(c2ccccc2)CCCCC1 (stereo not drawn) | 0.0078 | > 10 |  |  |  |  |
| CC(C)c1cccc(C(C)C)c1NC(=O)NC(C)(Cc1c[nH]c2ccccc12)C(=O)N[C@H]1COC(C)(C)OC1c1ccccc1 (stereo partly drawn) | 0.095 | > 10 |  |  |  |  |
| CC(C)c1cccc(C(C)C)c1NC(=O)NC(C)(Cc1c[nH]c2ccccc12)C(=O)NC1CCCCC1 (stereo not drawn) | 0.31 | > 10 |  |  |  |  |
| CC(C)c1cccc(C(C)C)c1NC(=O)NC(Cc1c[nH]c2ccccc12)C(=O)N(C)CC1CCCCC1 (stereo not drawn) |  | > 10 |  |  |  |  |
| CC(C)c1cccc(C(C)C)c1NC(=O)NC(Cc1c[nH]c2ccccc12)C(=O)NCC1CCCCC1 (stereo not drawn) | 0.12 | > 10 |  |  |  |  |
| CC(C)c1cccc(C(C)C)c1NC(=O)NC(C)(Cc1c[nH]c2ccccc12)C(=O)NC1COC(C)(C)OC1 (stereo not drawn) | 0.63 | > 10 |  |  |  |  |
| CC(C)c1cccc(C(C)C)c1N(C)C(=O)NC(Cc1c[nH]c2ccccc12)C(=O)NCC1CCCCC1 (stereo not drawn) | 0.26 | > 10 |  |  |  |  |
